This is an account of results in patent US20140024171A1, “PERYLENE TETRACARBOXYLIC ACID BISIMIDE DERIVATIVE, N-TYPE SEMICONDUCTOR, A METHOD FOR PRODUCING N-TYPE SEMICONDUCTOR, AND ELECTRONIC DEVICE” (NATIONAL UNIVERSITY CORPORATION KAGAWA UNIVERSITY, priority 2012, published 2014).

Entries after “also recorded” stand apart in the source; their conditions may differ.

Data set [1] in a line: Solubility in organic solvents. The data set is classed as physicochemical. As to the method:
Thus, the liquid crystal compound (1-1) can be formed into a film by a spin coating method using a solution in any of these solvents. The film formation was performed as follows in the present example.
Thus, the liquid crystal compound (2-1) can be formed into a film by a spin coating method using a solution in any of these solvents. The film formation was performed as follows in the present example.

Data set [2] is described as follows: Charge transport properties (carrier mobility) by transient photocurrent measurement, Time-of-Flight (TOF) method. Format: physicochemical. The following applies: for maximum electron mobility calculated by the TOF method: room temperature (25° C.), sample thickness 9 μm, applied voltage 10 V to 100 V. Here is the method:
Charge transport properties (carrier mobility properties) of the liquid crystal compound (2-1) ((2), m=1, n=1) obtained in Example 2 were measured by a Time-of-Flight (TOF) method. In this method, while a DC voltage was applied to a sandwich-type sample (liquid crystal cell produced in Example 4) having photoconductivity, the sample was irradiated with a pulse laser to cause photocarriers to be generated on one side of the sample, and a change in displacement current (transient photocurrent) induced in an external circuit when the carriers transited in the sample over time was measured. A constant current was generated by the transit of photocarriers, and when the carriers reached the counter electrode, the current was decayed to 0. The time from a start of decay in transient photocurrent to 0 corresponds to the time required for the carriers to transit in the sample (transit time). When the thickness of the sample is represented by d (cm), an applied voltage is represented by V (volt), and the transit time is represented by tT, mobility p (cm^2/Vs) is represented by the following mathematical expression. When an electrode on the irradiation side is biased to positive, mobility of positive carriers is determined, and when an electrode on the irradiation side is biased to negative, mobility of negative carriers is determined.
The measurement by a Time-of-Flight method was performed as follows. That is, while a voltage was applied to the liquid crystal cell produced in Example 4 at room temperature, the liquid crystal cell was irradiated with a pulse laser (Nd: YAG laser, THG: wavelength of 356 nm, pulse width of 1 ns), and a displacement current induced at the time of the irradiation was measured with a digital oscilloscope. […] In FIG. 7, the horizontal axis indicates time (μs), and the vertical axis indicates a photocurrent (μA). The present sample has favorable photoconductivity, and thus, sufficiently strong current signal could be obtained. […] According to the measurement result, the mobility of negative carriers reached maximum at 1×10^−3 cm^2/Vs at 30° C. This value is higher by an order of magnitude than the mobility of a conjugate polymer-fullerene derivative composite generally used in a bulk hetero junction-type organic thin-film solar battery.
Charge transport properties (carrier mobility properties) of the liquid crystal compound (2-44) ((2), m=0, n=1)) were measured through transient photocurrent measurement by a Time-of-Flight method using the liquid crystal cell produced in Example 8. The transient photocurrent measurement by a Time-of-Flight method was performed in the same manner as in the measurement of charge transport properties (carrier mobility properties) of the liquid crystal compound (2-1) ((2), m=1, n=1). The thickness of a sample of the liquid crystal compound (2-44) ((2), m=0, n=1)) was 25 μm. The measurement temperature was 40° C., and the measurement was performed while changing an applied voltage from 10 V to 100 V by 10 V increments. The graphs of FIGS. 11A and 11B show the results of the measurement. In FIGS. 11A and 11B, the horizontal axis indicates time (μs), and the vertical axis indicates a photocurrent (μA). As shown in FIGS. 11A and 11B, in the same time of flight, the higher the applied voltage was, the higher the photocurrent flowed.
In addition, the same measurement as in FIGS. 11A and 11B was performed with a change in measurement temperature from 25° C. to 130° C. The result of the measurement is shown in a graph of FIG. 12A. In FIG. 12A, the horizontal axis indicates an electric field strength (10^4 V/cm), and the vertical axis indicates carrier mobility (cm^2/Vs). […] Thus, the vertical axis (carrier mobility) is equal to electron mobility.
A result of the measurement at an electric field strength of 4.0×10^4 V/cm in FIG. 12A is shown in a graph of FIG. 12B as a function of time and electron mobility. […]

`C=CCN1C(=O)c2ccc3c4ccc5c6c(ccc(c7ccc(c2c37)C1=O)c64)C(=O)N(CC=C)C5=O` [Compound (6), perylene tetracarboxylic acid bis(allylimide)]: in data set [1], the “solubility in organic solvents” value is on record as “barely dissolved in an organic solvent”.
Consider `C[Si](C)(C)O[Si](C)(C)CCCCCCC(CCCCCC[Si](C)(C)O[Si](C)(C)C)N1C(=O)c2ccc3c4ccc5c6c(ccc(c7ccc(c2c37)C1=O)c64)C(=O)N(C(CCCCCC[Si](C)(C)O[Si](C)(C)C)CCCCCC[Si](C)(C)O[Si](C)(C)C)C5=O` [Compound (2-46)], for which, in data set [2], the “electron mobility relative to the maximum electron mobility of liquid crystal compound (2-1)” value is “about 10 times higher” and the “maximum electron mobility calculated by the TOF method” value is given as 1×10^−2 cm/Vs.
With `C[Si](C)(C)O[Si](C)(C)CCCCC(CCCC[Si](C)(C)O[Si](C)(C)C)N1C(=O)c2ccc3c4ccc5c6c(ccc(c7ccc(c2c37)C1=O)c64)C(=O)N(C(CCCC[Si](C)(C)O[Si](C)(C)C)CCCC[Si](C)(C)O[Si](C)(C)C)C5=O` [Compound (2-44)], the “electron mobility relative to the maximum electron mobility of liquid crystal compound (2-1)” value in data set [2] is 100 times higher. Further, in data set [2] (40° C., electric field strength 4.0×10^4 V/cm, sample thickness 25 μm), the maximum electron mobility was 1.2×10^−1 cm^2/Vs. Further, the “electron mobility at 130° C. relative to the electron mobility at 40° C.” value in data set [2] (temperature increased to 130° C.) is on record as “about a half”.
As to `C[Si](C)(C)O[Si](C)(C)O[Si](C)(C)CCCN1C(=O)c2ccc3c4ccc5c6c(ccc(c7ccc(c2c37)C1=O)c64)C(=O)N(CCC[Si](C)(C)O[Si](C)(C)O[Si](C)(C)C)C5=O` [Compound (1-1), perylene tetracarboxylic acid bis(1,1,1,3,3,5,5-heptamethyltrisiloxanylpropylimide)], in data set [1], the “solubility in organic solvents” value was “soluble in toluene, chlorobenzene, tetrahydrofuran, chloroform, dichloromethane, and the like; also recorded: high solubility in various organic solvents”.
Turning to `C[Si](C)(C)O[Si](C)(C)O[Si](C)(C)CCCCC(CCCC[Si](C)(C)O[Si](C)(C)O[Si](C)(C)C)Oc1ccc(N2C(=O)c3ccc4c5ccc6c7c(ccc(c8ccc(c3c48)C2=O)c75)C(=O)N(c2ccc(OC(CCCC[Si](C)(C)O[Si](C)(C)O[Si](C)(C)C)CCCC[Si](C)(C)O[Si](C)(C)O[Si](C)(C)C)cc2)C6=O)cc1` [Compound (5-1), N—N′-bis(4-(1,9,-di(1,1,1,3,3,5,5-heptamethyltrisiloxanyl)nonane-5-yloxy)phenyl)perylene-3,4,9,10-tetracarboxylic acid bisimide], in data set [2], the “maximum electron mobility calculated by the TOF method” value is 1×10^−4 cm/Vs.
As to `C[Si](C)(C)O[Si](C)(C)O[Si](C)(C)CCCCC(CCCC[Si](C)(C)O[Si](C)(C)O[Si](C)(C)C)N1C(=O)c2ccc3c4ccc5c6c(ccc(c7ccc(c2c37)C1=O)c64)C(=O)N(C(CCCC[Si](C)(C)O[Si](C)(C)O[Si](C)(C)C)CCCC[Si](C)(C)O[Si](C)(C)O[Si](C)(C)C)C5=O` [Compound (2-1), perylene tetracarboxylic acid bis{di-(1,1,1,3,3,5,5-heptamethyltrisiloxanylbutyl)-methylimide}], the “solubility in organic solvents” value in data set [1] was “soluble in ethyl acetate, acetone, cyclohexane, and the like in addition to toluene, chlorobenzene, tetrahydrofuran, chloroform, dichloromethane, and the like; also recorded: high solubility in various organic solvents”.
